Results from patent US10159653B2, “Methods and compositions for increasing energy expenditure using cinnamaldehyde” (NESTEC S.A., priority 2013, dated 2018).

Tests used:
[1] = Ludy et al. 2011; cited from earlier work
Human subjects [2] = test: Comparative taste testing; assay type: in vivo; conditions: 4.8 ppm capsaicin or 350 ppm cinnamaldehyde
Description: Human subjects were administered a composition comprising 4.8 ppm capsaicin or 350 ppm cinnamaldehyde. […] 87.9% of the participants judged capsaicin intense to very intense, compared to only 20.5% for cinnamaldehyde. To achieve a similar effect on fat oxidation of capsaicin and cinnamaldehyde, the dose of capsaicin is about 1.5 times less than the maximum that can be used as a flavor (7 ppm according to Fenaroli's Handbook), and the dose of cinnamaldehyde is about 17.5 times less than the maximum that can be used as a flavor (6191.0 ppm according to Fenaroli's Handbook).

Human subjects [3] = test: Nose temperature after ingestion; assay type: in vivo; conditions: fifteen minutes following ingestion
Description: The nose temperature of the subjects was analyzed over the fifteen minutes following ingestion of the various compounds.

TRPM8 = TRPM8 (Homo sapiens, UniProt Q7Z2W7); conditions: cited from earlier work
Chain of TRPM8 (Q7Z2W7 whole entry, species assumed): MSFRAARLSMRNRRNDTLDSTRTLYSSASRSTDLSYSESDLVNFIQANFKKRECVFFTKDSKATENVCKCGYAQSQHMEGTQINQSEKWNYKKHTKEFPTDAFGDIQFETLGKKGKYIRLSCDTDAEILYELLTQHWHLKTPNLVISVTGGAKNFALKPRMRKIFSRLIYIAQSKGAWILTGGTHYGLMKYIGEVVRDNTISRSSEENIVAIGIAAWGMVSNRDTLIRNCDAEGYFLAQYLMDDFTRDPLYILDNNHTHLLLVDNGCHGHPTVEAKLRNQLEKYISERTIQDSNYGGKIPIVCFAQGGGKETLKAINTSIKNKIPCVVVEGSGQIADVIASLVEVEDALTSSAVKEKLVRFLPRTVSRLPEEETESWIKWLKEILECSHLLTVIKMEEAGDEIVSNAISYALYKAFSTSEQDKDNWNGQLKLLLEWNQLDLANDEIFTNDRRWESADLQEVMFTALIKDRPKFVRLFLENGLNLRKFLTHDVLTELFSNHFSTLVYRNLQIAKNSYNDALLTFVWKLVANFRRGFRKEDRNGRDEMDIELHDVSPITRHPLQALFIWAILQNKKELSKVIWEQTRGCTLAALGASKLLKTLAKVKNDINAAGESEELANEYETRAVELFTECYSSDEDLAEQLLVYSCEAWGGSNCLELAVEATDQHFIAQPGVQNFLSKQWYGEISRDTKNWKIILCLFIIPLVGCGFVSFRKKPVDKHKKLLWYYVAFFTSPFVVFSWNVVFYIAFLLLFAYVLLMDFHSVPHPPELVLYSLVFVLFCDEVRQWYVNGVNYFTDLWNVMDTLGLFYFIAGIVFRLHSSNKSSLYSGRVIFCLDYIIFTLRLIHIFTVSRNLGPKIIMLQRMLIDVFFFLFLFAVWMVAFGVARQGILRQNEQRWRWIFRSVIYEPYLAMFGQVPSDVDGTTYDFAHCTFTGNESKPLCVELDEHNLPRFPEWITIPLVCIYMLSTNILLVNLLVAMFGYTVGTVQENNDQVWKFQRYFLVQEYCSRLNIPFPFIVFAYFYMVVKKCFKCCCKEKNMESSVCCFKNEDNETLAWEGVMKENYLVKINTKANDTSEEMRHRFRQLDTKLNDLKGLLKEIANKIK

Human subjects [4] = test: Postprandial fat oxidation after ingestion; assay type: in vivo
Description: The postprandial fat oxidation was measured over the 90 minutes following ingestion of the various compounds.

TRPA1 [5] = target: T1, TRPA1 (Mus musculus, UniProt Q8BLA8); test: Pre-clinical study, single dose: gastric emptying and short term food intake; assay type: in vivo; conditions: single dose 250 mg/kg bw
T1 construct: endogenous in cells; host or cells: living animals of the pre-clinical study (probably mice)
T1 sequence (Q8BLA8 whole entry): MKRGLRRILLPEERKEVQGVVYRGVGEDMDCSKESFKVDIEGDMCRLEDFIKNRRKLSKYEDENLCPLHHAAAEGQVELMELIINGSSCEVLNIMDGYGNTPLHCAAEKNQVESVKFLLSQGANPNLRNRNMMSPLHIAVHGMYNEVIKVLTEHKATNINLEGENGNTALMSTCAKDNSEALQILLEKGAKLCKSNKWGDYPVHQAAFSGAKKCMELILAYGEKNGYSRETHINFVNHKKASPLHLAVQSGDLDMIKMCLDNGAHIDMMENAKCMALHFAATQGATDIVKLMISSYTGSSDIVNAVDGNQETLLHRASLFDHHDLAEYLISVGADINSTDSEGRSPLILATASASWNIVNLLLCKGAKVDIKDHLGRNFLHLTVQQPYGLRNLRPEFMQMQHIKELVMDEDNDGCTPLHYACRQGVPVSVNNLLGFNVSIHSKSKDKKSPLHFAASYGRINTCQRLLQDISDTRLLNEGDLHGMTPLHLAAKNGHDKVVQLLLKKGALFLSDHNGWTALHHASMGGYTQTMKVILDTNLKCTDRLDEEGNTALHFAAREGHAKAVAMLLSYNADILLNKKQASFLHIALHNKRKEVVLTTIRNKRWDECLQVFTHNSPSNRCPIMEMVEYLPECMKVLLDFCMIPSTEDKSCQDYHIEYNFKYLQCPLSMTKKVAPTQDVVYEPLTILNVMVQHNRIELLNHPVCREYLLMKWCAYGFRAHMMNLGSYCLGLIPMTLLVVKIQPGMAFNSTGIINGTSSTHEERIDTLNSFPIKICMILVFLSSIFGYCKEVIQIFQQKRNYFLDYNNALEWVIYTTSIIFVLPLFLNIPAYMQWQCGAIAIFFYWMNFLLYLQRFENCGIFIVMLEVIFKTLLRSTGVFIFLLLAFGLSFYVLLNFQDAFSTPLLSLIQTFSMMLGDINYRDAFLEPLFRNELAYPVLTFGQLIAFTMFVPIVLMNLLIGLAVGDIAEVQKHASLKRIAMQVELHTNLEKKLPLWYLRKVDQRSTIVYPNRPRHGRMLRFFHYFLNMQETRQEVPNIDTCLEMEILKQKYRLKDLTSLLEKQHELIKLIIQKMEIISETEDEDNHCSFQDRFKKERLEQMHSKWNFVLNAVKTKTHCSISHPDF

Human subjects [6] = test: Energy expenditure after ingestion (indirect calorimetry); assay type: in vivo
Description: Human subjects were administered placebo, a cooling flavor, capsaicin or cinnamaldehyde. The energy expenditure was measured over the eighty minutes following ingestion. […] The increased sympathetic activity identified by measuring the facial temperature (increased blood flow on the chin) might explain the increased energy expenditure measured by indirect calorimetry.

Human subjects [7] = test: Chin temperature after ingestion (sympathetic nervous system activity); assay type: in vivo
Description: The chin temperature of the subjects was measured over the eighty minutes following ingestion of the various compounds. […] The increased sympathetic activity identified by measuring the facial temperature (increased blood flow on the chin) might explain the increased energy expenditure measured by indirect calorimetry.

TRPV1 = TRPV1 (Homo sapiens, UniProt Q8NER1); conditions: cited from earlier work
Chain of TRPV1 (Q8NER1 whole entry, species assumed): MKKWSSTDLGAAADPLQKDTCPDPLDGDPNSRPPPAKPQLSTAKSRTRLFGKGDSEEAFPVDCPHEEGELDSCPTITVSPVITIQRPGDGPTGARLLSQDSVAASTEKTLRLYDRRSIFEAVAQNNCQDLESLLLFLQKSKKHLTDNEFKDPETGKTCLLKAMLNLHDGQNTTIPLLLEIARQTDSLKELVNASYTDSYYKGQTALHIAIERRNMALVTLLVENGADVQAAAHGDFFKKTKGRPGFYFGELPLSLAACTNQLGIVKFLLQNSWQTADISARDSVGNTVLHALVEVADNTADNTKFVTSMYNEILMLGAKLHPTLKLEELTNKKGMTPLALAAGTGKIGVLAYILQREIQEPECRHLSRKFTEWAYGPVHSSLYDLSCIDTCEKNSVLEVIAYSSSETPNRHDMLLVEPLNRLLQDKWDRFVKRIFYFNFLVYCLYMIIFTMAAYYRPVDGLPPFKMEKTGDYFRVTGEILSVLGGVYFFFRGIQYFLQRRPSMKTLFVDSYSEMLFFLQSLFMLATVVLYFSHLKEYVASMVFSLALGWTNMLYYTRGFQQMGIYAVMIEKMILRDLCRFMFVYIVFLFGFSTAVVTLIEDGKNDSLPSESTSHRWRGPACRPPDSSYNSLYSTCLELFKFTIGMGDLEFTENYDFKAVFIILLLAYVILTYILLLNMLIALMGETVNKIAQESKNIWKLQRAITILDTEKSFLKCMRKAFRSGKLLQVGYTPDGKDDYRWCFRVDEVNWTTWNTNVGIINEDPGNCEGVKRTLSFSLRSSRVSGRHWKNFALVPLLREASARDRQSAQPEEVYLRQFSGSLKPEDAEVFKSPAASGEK

TRPA1 [8] = conditions: read-out: EC50 of TRPA1 activation; cited from earlier work
obese mice = test: Pre-clinical study, chronic ingestion in food; assay type: in vivo; conditions: 0.2% in food
Description: The findings of the inventors were especially surprising in that a low dose (1.25 mg/kg body weight per day) of cinnamaldehyde at a flavoring range can provide an effect after a single ingestion. In a pre-clinical study by the inventors, the dose of cinnamaldehyde was about 250 mg/kg body weight per day, with chronic ingestion (effect on body weight gain and insulin sensitivity).

[9] = flavoring level of cinnamaldehyde judged significantly less intense than capsaicin

| Structure (SMILES) | efficient dose for increasing energy expenditure and fat oxidation [1] | participants who judged the taste intense to very intense (Human subjects [2]) | nose temperature (Human subjects [3]) | activation of TRPM8 (TRPM8) | effect on fat oxidation compared to capsaicin (Human subjects [4]; [9]) | postprandial fat oxidation compared to placebo (Human subjects [4]; human subjects, 90 minutes following ingestion, time course and AUC) | short term food intake (TRPA1 [5]) | gastric emptying (TRPA1 [5]; through TRPA1 activation) | impact on energy expenditure compared to capsaicin (Human subjects [6]; [9]) | energy expenditure compared to placebo (Human subjects [6]; human subjects, eighty minutes following ingestion, time course and AUC) | impact on sympathetic nervous system activity compared to capsaicin (Human subjects [7]; [9]) | chin temperature relative to baseline (Human subjects [7]; human subjects, eighty minutes following ingestion) | activation of TRPV1 (TRPV1) | EC50 (TRPA1 [8]) | lean mass gain (obese mice) | body weight gain (obese mice; about 250 mg/kg bw/day) | food intake (obese mice; about 250 mg/kg bw/day) | insulin sensitivity (obese mice; about 250 mg/kg bw/day) | fat mass gain (obese mice; p 0.06) |
| --- | --- | --- | --- | --- | --- | --- | --- | --- | --- | --- | --- | --- | --- | --- | --- | --- | --- | --- | --- |
| COc1cc(CNC(=O)CCCC/C=C/C(C)C)ccc1O [capsaicin] | ≥ 20 mg | 87.9% | increase nose temperatures |  |  |  |  |  |  |  |  |  |  |  |  |  |  |  |  |
| O=CC=Cc1ccccc1 [cinnamaldehyde] |  |  | increase nose temperatures | not | equivalent effect | maintained at higher levels | reduced short term food intake | delayed gastric emptying | significantly higher impact | increased | significantly higher impact | increases chin temperature for a prolonged time | not | ~60 µM | no effect | reduces body weight gain | without affecting their food intake | improves their insulin sensitivity | tendency to decrease |
